Target: histamine H4 receptor (Homo sapiens, UniProt Q9H3N8)
Experiment: In vitro histamine H4 potency in FLIPR (Ca2+ flux, HEK-293 cells coexpressing Gαqi5)
Format: cell-based
Design: expressed in transfected cells
Conditions: Kb for antagonists and inverse agonists, EC50 for partial agonists
Description: There are many methods available to show the effectiveness of compounds as histamine H4 receptor ligands. Histamine H4 receptors from mammalian species have been cloned. Methods to clone, express, and assess the potency and functional activity of such cloned genes are well known to those skilled in the art of molecular biology. […] Before testing, cells are loaded with a Ca^+2 sensitive fluorescent dye, in this case Fluo-4. In the case of partial agonist or agonist ligands, addition of compound to the cells leads to the increase in intracellular Ca^+2 which is detected by FLIPR (Fluorescence Imaging Plate Reader; Molecular Devices, Sunnyvale, Calif.) technology. […] The fluorescence intensities measured before addition of the test compound are subtracted from the fluorescence intensities at later time points. Peak response values determined at each concentration of ligand are expressed as a percentage of the response obtained with the full agonist histamine. Concentration versus response data are analyzed to obtain compound potency as Kb values for antagonists and inverse agonists and as EC50 values for partial agonists.

Sequence of histamine H4 receptor (Q9H3N8 whole entry): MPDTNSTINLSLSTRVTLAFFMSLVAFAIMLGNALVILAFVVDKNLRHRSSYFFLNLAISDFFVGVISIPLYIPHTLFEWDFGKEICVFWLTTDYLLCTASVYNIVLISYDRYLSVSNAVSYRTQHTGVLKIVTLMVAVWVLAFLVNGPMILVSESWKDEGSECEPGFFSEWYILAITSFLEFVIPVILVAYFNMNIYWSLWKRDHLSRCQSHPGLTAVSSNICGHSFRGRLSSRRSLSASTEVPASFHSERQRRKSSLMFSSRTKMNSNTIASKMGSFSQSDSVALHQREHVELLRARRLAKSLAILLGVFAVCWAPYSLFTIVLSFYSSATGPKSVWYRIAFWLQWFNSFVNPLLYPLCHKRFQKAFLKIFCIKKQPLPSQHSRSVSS

Row | Compound | Potency
1 | CN1CCN(c2nc(N)nc3c2CCCc2ccccc2-3)CC1 [Example 5, 4-(4-Methyl-piperazin-1-yl)-6,7-dihydro-5H-benzo[6,7]cyclohepta[1,2-d]-pyrimidin-2-ylamine] | 9.8 nM
2 | CN1CC[C@H](Oc2nc(N)nc3c2CCCc2ccccc2-3)C1 [Example 71, 4-((S)-1-Methyl-pyrrolidin-3-yloxy)-6,7-dihydro-5H-benzo[6,7]cyclohepta[1,2-d]pyrimidin-2-ylamine] | 263 nM
3 | Nc1nc2c(c(N3CC4CNCC4C3)n1)CCCc1ccccc1-2 (stereo not shown) [Example 22, 4-(Hexahydro-pyrrolo[3,4-c]pyrrol-2-yl)-6,7-dihydro-5H-benzo[6,7]cyclohepta[1,2-d]pyrimidin-2-ylamine] | 66 nM
4 | CN(C)[C@@H]1CCN(c2nc(N)nc3c2CCCc2ccccc2-3)C1 [Example 76, 4-((R)-3-Dimethylamino-pyrrolidin-1-yl)-6,7-dihydro-5H-benzo[6,7]cyclohepta[1,2-d]pyrimidin-2-ylamine] | 55 nM
5 | CN[C@@H]1CCN(c2nc(N)nc3c2[S+]([O-])CCc2ccccc2-3)C1 (stereo partly drawn) [Example 112, 4-((R)-3-Methylamino-pyrrolidin-1-yl)-5-oxo-6,7-dihydro-5-thia-1,3-diaza-dibenzo[a,c]cyclohepten-2-ylamine] | 2455 nM
6 | Nc1nc2c(c(N3CCN4CCCC4C3)n1)CCCc1ccccc1-2 (stereo not shown) [Example 80, 4-(Octahydro-pyrrolo[1,2-a]pyrazin-2-yl)-6,7-dihydro-5H-benzo[6,7]cyclohepta[1,2-d]pyrimidin-2-ylamine] | 178 nM
7 | CN(C)CCOc1nc(N)nc2c1CCCc1ccccc1-2 [Example 74, 4-(2-Dimethylamino-ethoxy)-6,7-dihydro-5H-benzo[6,7]cyclohepta[1,2-d]pyrimidin-2-ylamine] | 219 nM
8 | CN1[C@@H]2CC[C@H]1CC(Nc1nc(N)nc3c1CCCc1ccccc1-3)C2 (stereo partly drawn) [Example 66, N^4-[(1R,5S)-8-methyl-8-azabicyclo[3.2.1]oct-3-yl]-6,7-dihydro-5H-benzo[6,7]cyclohepta[1,2-d]pyrimidine-2,4-diamine] | 17 nM
9 | CN[C@@H]1CCN(c2nc(N)nc3c2CCCc2ccc(F)cc2-3)C1 [Example 11, 10-Fluoro-4-(3-(R)-methylamino-pyrrolidin-1-yl)-6,7-dihydro-5H-benzo[6,7]cyclohepta[1,2-d]pyrimidin-2-ylamine] | 7.8 nM
10 | CN1CCN(c2nc(N)nc3c2CCc2ccccc2-3)CC1 [Example 42, 4-(4-Methyl-piperazin-1-yl)-5,6-dihydro-benzo[h]quinazolin-2-ylamine] | 13 nM
11 | Nc1nc2c(c(N3CC4CCNCC4C3)n1)CCCc1ccccc1-2 (stereo not shown) [Example 79, 4-(Octahydro-pyrrolo[3,4-c]pyridin-2-yl)-6,7-dihydro-5H-benzo[6,7]cyclohepta[1,2-d]pyrimidin-2-ylamine] | 89 nM
12 | Nc1nc2c(c(N3CCCNCC3)n1)CCCc1ccccc1-2 [Example 116, 4-[1,4]Diazepan-1-yl-6,7-dihydro-5H-benzo[6,7]cyclohepta[1,2-d]pyrimidin-2-ylamine] | 15 nM
13 | Nc1nc2c(c(N3CC[C@H](N)C3)n1)CCCCc1ccccc1-2 [Example 56, 4-[(3S)-3-aminopyrrolidin-1-yl]-5,6,7,8-tetrahydrobenzo[7,8]cycloocta[1,2-d]pyrimidin-2-amine] | 115 nM
14 | 4-(4-Dimethylamino-piperidin-1-yl)-6,7-dihydro-5H-benzo[6,7]cyclohepta[1,2-d]pyrimidin-2-ylamine [Example 114] | 17 nM
15 | COC(=O)N(C)c1ccc2c(c1)-c1nc(N)nc(N3CCNCC3)c1CCC2 [Example 128, (2-Amino-4-piperazin-1-yl-6,7-dihydro-5H-benzo[6,7]cyclohepta[1,2-d]pyrimidin-10-yl)-methyl-carbamic acid methyl ester] | 562 nM
16 | Nc1nc2c(c(N3CCNCC3)n1)CCc1ccccc1-2 [Example 44, 4-Piperazin-1-yl-5,6-dihydro-benzo[h]quinazolin-2-ylamine] | 24 nM
17 | COC(=O)N(C)c1ccc2c(c1)-c1nc(N)nc(N3CC4CCCNC4C3)c1CCC2 (stereo not shown) [Example 130, (2-Amino-4-octahydro-pyrrolo[3,4-b]pyridin-6-yl-6,7-dihydro-5H-benzo[6,7]cyclohepta[1,2-d]pyrimidin-10-yl)-methyl-carbamic acid methyl ester] | 164 nM
18 | Nc1nc2c(c(N3CCC4(CCNC4)CC3)n1)CCCc1ccccc1-2 [Example 60, 4-(2,8-diazaspiro[4.5]dec-8-yl)-6,7-dihydro-5H-benzo[6,7]cyclohepta[1,2-d]pyrimidin-2-amine] | 724 nM
19 | CNC1CN(c2nc(N)nc3c2CCSc2ccccc2-3)C1 [Example 33, 4-(3-Methylamino-azetidin-1-yl)-5,6-dihydro-7-thia-1,3-diaza-dibenzo[a,c]cyclohepten-2-ylamine] | 13 nM

Row | Compound | Potency
20 | CN[C@@H]1CCN(c2nc(N)nc3c2CCOc2cc(Cl)ccc2-3)C1 [Example 48, 9-chloro-4-[(3R)-3-(methylamino)pyrrolidin-1-yl]-5,6-dihydro[1]benzoxepino[5,4-d]pyrimidin-2-amine] | 43 nM
21 | Nc1nc(O[C@H]2CCNC2)c2c(n1)-c1ccccc1CCC2 [Example 73, 4-((S)-Pyrrolidin-3-yloxy)-6,7-dihydro-5H-benzo[6,7]cyclohepta[1,2-d]pyrimidin-2-ylamine] | 468 nM
22 | CN[C@@H]1CCN(c2nc(N)nc3c2SCCc2ccccc2-3)C1 [Example 107, 4-((R)-3-Methylamino-pyrrolidin-1-yl)-6,7-dihydro-5-thia-1,3-diaza-dibenzo[a,c]cyclohepten-2-ylamine] | 11 nM
23 | CN[C@@H]1CCN(c2nc(N)nc3c2CCc2ccccc2-3)C1 [Example 39, 4-(3-(R)-Methylamino-pyrrolidin-1-yl)-5,6-dihydro-benzo[h]quinazolin-2-ylamine] | 22 nM
24 | CC1Cc2c(nc(N)nc2N2CCNCC2)-c2ccccc21 (stereo not shown) [Example 4, 6-Methyl-4-piperazin-1-yl-5,6-dihydro-benzo[h]quinazolin-2-ylamine] | 398 nM
25 | CNC(=O)Nc1nc2c(c(N3CCNCC3)n1)CCCc1ccccc1-2 [Example 90, 1-Methyl-3-(4-piperazin-1-yl-6,7-dihydro-5H-benzo[6,7]cyclohepta[1,2-d]pyrimidin-2-yl)-urea] | 25119 nM
26 | CNc1ccc2c(c1)-c1nc(N)nc(N3CCNCC3)c1CCC2 [Example 129, 10-N-Methyl-4-piperazin-1-yl-6,7-dihydro-5H-benzo[6,7]cyclohepta[1,2-d]pyrimidine-2,10-diamine] | 1096 nM
27 | Nc1nc(NC2CCCNC2)c2c(n1)-c1ccccc1CCC2 (stereo not shown) [Example 121, N^4-piperidin-3-yl-6,7-dihydro-5H-benzo[6,7]cyclohepta[1,2-d]pyrimidine-2,4-diamine] | 407 nM
28 | Nc1nc2c(c(N3C[C@@H]4C[C@H]3CN4)n1)CCCCCc1ccccc1-2 [Example 28, 4-((1S,4S)-2,5-Diaza-bicyclo[2.2.1]hept-2-yl)-6,7,8,9-tetrahydro-5H-1,3-diaza-dibenzo[a,c]cyclononen-2-ylamine] | 15849 nM
29 | Nc1nc2c(c(N3CCNCC3)n1)CCCc1cc3c(cc1-2)CCCC3 [Example 99, 4-Piperazin-1-yl-6,7,9,10,11,12-hexahydro-5H-1,3-diaza-benzo[3,4]cyclohepta[1,2b]naphthalen-2-ylamine] | 25 nM
30 | CC(=O)Nc1nc2c(c(N3CCNCC3)n1)CCCc1ccccc1-2 [Example 83, N-(4-Piperazin-1-yl-6,7-dihydro-5H-benzo[6,7]cyclohepta[1,2-d]pyrimidin-2-yl)-acetamide] | 2951 nM
31 | CN[C@@H]1CCN(c2nc(N)nc3c2CCOc2c(C)cccc2-3)C1 [Example 52, 8-Methyl-4-((R)-3-methylamino-pyrrolidin-1-yl)-5,6-dihydro-7-oxa-1,3-diaza-dibenzo[a,c]cyclohepten-2-ylamine] | 56 nM
32 | CNC1CN(c2nc(N)nc3c2CCCCCc2ccccc2-3)C1 [Example 26, 4-(3-Methylamino-azetidin-1-yl)-6,7,8,9-tetrahydro-5H-1,3-diaza-dibenzo[a,c]cyclononen-2-ylamine] | 115 nM
33 | CN[C@@H]1CCN(c2nc(N)nc3c2CCSc2ccccc2-3)C1 [Example 34, 4-(3-(R)-Methylamino-pyrrolidin-1-yl)-5,6-dihydro-7-thia-1,3-diaza-dibenzo[a,c]cyclohepten-2-ylamine] | 4.2 nM
34 | CN(C)CCNc1nc2c(c(N3CCNCC3)n1)CCCc1ccccc1-2 [Example 95, N,N-Dimethyl-N′-(4-piperazin-1-yl-6,7-dihydro-5H-benzo[6,7]cyclohepta[1,2-d]pyrimidin-2-yl)-ethane-1,2-diamine] | 1413 nM
35 | N#Cc1ccc2c(c1)OCCc1c-2nc(N)nc1N1CC2CCCNC2C1 (stereo not shown) [Example 104, 2-Amino-4-octahydro-pyrrolo[3,4-b]pyridin-6-yl-5,6-dihydro-7-oxa-1,3-diaza-dibenzo[a,c]cycloheptene-9-carbonitrile] | 141 nM
36 | Nc1nc2c(c(N3CC[C@@H]4CNC[C@@H]43)n1)CCCc1ccccc1-2 [Example 19, 4-((3aR,6aR)-Hexahydro-pyrrolo[3,4-b]pyrrol-1-yl)-6,7-dihydro-5H-benzo[6,7]cyclohepta[1,2-d]pyrimidin-2-ylamine] | 603 nM
37 | O=C(Nc1nc2c(c(N3CCNCC3)n1)CCCc1ccccc1-2)c1ccccc1 [Example 84, N-(4-Piperazin-1-yl-6,7-dihydro-5H-benzo[6,7]cyclohepta[1,2-d]pyrimidin-2-yl)-benzamide] | 3388 nM

— US8735411B2, “Macrocyclic benzofused pyrimidine derivatives” (AbbVie Inc., priority 2006, dated 2014)
